Values joined by “and” are separate entries in the source; they are usually repeats but may differ in a detail not shown here. Equal values may be shown once.
Key:
PI4KIIIalpha = molecular target: T1, PI4KIIIalpha (Homo sapiens, UniProt P42356); test: PI-kinase assay, PI4KIIIalpha (Table 4); assay type: biochemical
T1 construct: made in house; host or cells: COS-7 cells, transient transfection, anti-HA immunoprecipitate on protein G Sepharose beads
Procedure: (§1) PI-kinase assay: Compounds are tested in C.1.1. PT kinase assays as described by Shokat et al., “A membrane capture assay for lipid kinase activity.” Nat. Protoc. 2007; 2(10):2459-66.
(§2) General methods of materials: In the assays described here, p110α-p85 complex and p110γ were acquired from Millipore. Assays were performed with La-phosphatidylinositol (Avanti) as described in Knight et al. Nat Protoc. 2007; 2 (10):2459-66. Inhibitor series were prepared 10% DMSO as 5× stocks for the assay. Assays of HsVps34 were performed as described in Knight et al, except that the final assay buffer composition used was changed to 20 mM HEPES 7.5, 100 mM NaCl, 3 mM MgCl, 1 mg/mL PI and 44 nM hvps34 was used in the assay. […] COS-7 cells were cultured in 10 cm dishes and transfected at 70% confluence with 10 μg of plasmid DNA (HA-tagged bovine PI4KIIIβ. HA-tagged human PI4KIIIα) using Lipofectamine 2000 and 5 ml Opti-MEM following the manufacturer's instructions. After 5 hours the transfection medium was replaced with 10 ml complete DMEM. 36 hrs post transfection, cells were washed once with 5 ml PBS (pH 7.4) and lysed in 1 ml of lysis buffer (1) on ice. Lysates were collected by scraping and after 15 min they were centrifuged at 13.000 rpm for 10 min. To the lysates was added 200 gi of protein G Sepharose 4 fast flow beads that were prewashed with PBS and lysis buffer and 2 sg of anti-HA antibody. The tubes were then incubated overnight at 4 degrees C. in a tube rotator. The Sepharose beads in the lysate were washed twice with 150 mM NaCl in RIPA buffer, twice with RIPA buffer and once with kinase buffer (50 mM Tris/HCl, pH 7.5, 20 mM MgCl2, 1 mM EFTA, 1 mM PtdIns, 0.4% Triton X-100, 0.5 mg/mL BSA) and finally the beads were resuspended in 200 μL kinase buffer. Kinase reactions were run in a mixture of 45 μL of PI buffer (1 mM P1 in kinase buffer), 10 μL of immunoprecipitated beads, 2 µL of inhibitors (dissolved and diluted in DMSO) or DMSO and 5 μL of [γ-^32P]-ATP (1 mM and 2 μCi/tube). The immunoprecipitates in PI buffer were pre-incubated with the drugs for 20 min prior the initiation of kinase reaction by adding ATP and the reactions were carried out for 30 min in 15 ml polyproplyene tubes. Reactions were terminated by addition of 3 ml of CHCl3:CH3OH:HCl (200:100:0.75) followed by 0.6 ml of 0.61N HCl to induce phase separation. The mixtures were vortexed, centrifuged at 2000 rpm for 2 min and the upper phase was discarded. To the lower phase was added 1.5 ml of CHCl3:CH3OH:0.6N HCl (3:48:47) and the mixture vortexed and centrifuged at 2000 rpm for 2 ruin. The lower phase was then transferred to counting vials and evaporated. Samples were counted in a scintillation beta counter after adding 5 ml of Instafluor (Perkin-Elmer).
(§3) Selected compounds of Tables 1-3 were prepared and tested for inhibition activity in a variety of kinase assays.

PI4KIIIbeta = molecular target: T2, PI4KIIIbeta (Bos taurus, UniProt O02810); test: PI-kinase assay, PI4KIIIbeta (Table 4); assay type: biochemical, bovine
T2 construct: made in house; host or cells: COS-7 cells, transient transfection, anti-HA immunoprecipitate on protein G Sepharose beads
T2 sequence (O02810 whole entry): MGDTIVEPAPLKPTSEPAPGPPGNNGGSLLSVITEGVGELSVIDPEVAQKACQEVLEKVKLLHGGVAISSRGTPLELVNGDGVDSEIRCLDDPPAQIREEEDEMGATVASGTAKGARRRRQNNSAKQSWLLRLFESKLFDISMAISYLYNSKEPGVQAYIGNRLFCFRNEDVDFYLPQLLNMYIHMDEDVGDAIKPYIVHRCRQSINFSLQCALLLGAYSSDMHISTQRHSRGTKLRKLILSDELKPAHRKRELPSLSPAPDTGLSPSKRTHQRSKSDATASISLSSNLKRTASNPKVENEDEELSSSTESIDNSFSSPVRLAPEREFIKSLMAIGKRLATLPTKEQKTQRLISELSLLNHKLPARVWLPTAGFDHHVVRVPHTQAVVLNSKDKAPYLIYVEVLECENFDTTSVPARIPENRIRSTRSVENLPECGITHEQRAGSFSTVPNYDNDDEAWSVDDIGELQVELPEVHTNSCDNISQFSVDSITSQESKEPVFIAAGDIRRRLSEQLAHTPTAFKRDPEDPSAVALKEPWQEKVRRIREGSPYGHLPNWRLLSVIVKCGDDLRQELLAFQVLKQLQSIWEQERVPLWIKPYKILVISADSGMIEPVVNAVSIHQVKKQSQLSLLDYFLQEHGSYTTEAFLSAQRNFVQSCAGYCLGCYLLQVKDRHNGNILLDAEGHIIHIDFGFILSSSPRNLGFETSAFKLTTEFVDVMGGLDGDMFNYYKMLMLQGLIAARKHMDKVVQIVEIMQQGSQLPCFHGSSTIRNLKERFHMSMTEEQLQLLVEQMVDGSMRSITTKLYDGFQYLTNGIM
Procedure: as §1, §2, §3

[1] = test system: BK virus (Polyomaviridae); test: BK virus antiviral assay (EC50); assay type: cell-based; conditions: Betapolyomavirus hominis
[2] = test system: Human HPV (Papillomaviridae); test: Human HPV antiviral assay (EC50); assay type: cell-based, human papilloma virus; conditions: Human papillomavirus, read-out: Human HPV (Papillomaviridae) EC50
lung cancer cell lines [3] = test: PI4P levels in lung cancer cell lines; assay type: cell-based, human; conditions: panel of lung cancer cell lines
Procedure: (§4) Human lung cancer cells (A549, H1299, H460, H23, H2122, and H3122) were cultured in RPMI 1640 containing 10% FBS. Cells were maintained at 37° C. in an incubator with a humidified atmosphere containing 5% CO2.
(§5) To assess the anti-cancer activity of exemplary PI4K antagonists, a panel of lung cancer cell lines annotated for the presence or absence of PI4K amplifications were treated with PI4K inhibitors (IN-9, TN-10, or compound B) that have greater than 1000-fold selectivity […] PI4KIIIβ over class I and class III PI3K family members. […] IC50 values were even lower with the presence of PI4K amplifications.
(§6) PI4KIIIβ is a target in human cancers, including lung adenocarcinoma. (FIG. 1A). PI4P concentrations in H2122 cells (dots) treated in triplicate (dots) with Compound B or vehicle dimethyl sulfoxide (DMS). (FIG. 1B) Relative densities of PI4-kinase-amplified (red) and -diploid (black) human lung adenocarcinoma cell lines determined by WST-1 assays after 5 days of Compound B treatment. Results expressed relative to the lowest dose, which was set at 100%. (FIG. 1B, right panel) Half maximal inhibitory (IC50) concentrations of compound B determined from FIG. 1B, left panel. (FIG. 1C) Migrated and invaded 1-23 human lung adenocarcinoma cells in Transwell chambers were photographed (images) and counted (bar graphs) after treatment with compound B. Results expressed relative to DMSO-treated cells, which were set at 1.0. (FIG. 1C, right panel). Colonies formed by H2122 human lung cancer cells in soft agarose (FIG. 1D) and on plastic (FIG. 1E) were photographed (images) and counted (bar graphs) after 7 days of treatment with the indicated doses of compound B or vehicle DMSO (0 M). Results expressed relative to DMSO control, which were set at 1.0. PI4-kinase inhibition leads to selective cytotoxicity for cancer cells (FIG. 1F).

lung cancer cell lines [4] = test: Cell proliferation in monolayer culture (WST-1); assay type: cell-based, human; conditions: panel of lung cancer cell lines
Procedure: as §4, §5, §6

lung cancer cell lines [5] = test: Migration and invasion in Boyden chambers; assay type: cell-based, human; conditions: panel of lung cancer cell lines
Procedure: as §4, §5, §6

lung cancer cell lines [6] = test: Colony formation in soft agar and on plastic; assay type: cell-based, human; conditions: panel of lung cancer cell lines
Procedure: as §4, §5, §6

[7] = test system: H2122 human orthotopic lung tumors; test: H2122 human orthotopic lung tumors in nu/nu mice; assay type: in vivo; conditions: 20 or 40 mg/kg plus 20 mg/kg ritonavir, subcutaneously twice daily for three weeks
Procedure: Mice received standard care and were euthanized according to the standards set forth by the Institutional Animal Care and Use Committee. To generate orthotopic lung tumors using human lung adenocarcinoma cell lines, nu/nu mice (n=10 mice per cohort) were subjected to intrathoracic injection with 10^6 human tumor cells, necropsied after a week or more of treatment, and primary tumor size and the number of metastases on the contralateral lung surface measured. […] Drugs were administered subcutaneously twice daily for three weeks. On the last day of treatment, mice were subjected to micro-computed tomography to measure primary tumor size. The following day, mice were necropsied to measure primary tumor size, count metastases to the contralateral lung, and obtain lung tissues for analysis. […] Drugs were administered intraperitoneally twice daily for 8 days. On the last day of treatment, mice were subjected to micro-computed tomography to measure primary tumor size. The following day, mice were necropsied to measure primary tumor size, count metastases to the contralateral lung, and obtain lung tissues.

EV-71 virus = test: Survival of AG129 mice challenged with EV-71; assay type: in vivo; conditions: EV-71 10^6.5 CCID50/mouse i.p., treated b.i.d. for five days per os starting four hours post-infection
Procedure: FIG. 4 illustrates the survival of four-week-old AG129 mice challenged with EV-71 virus and treated with exemplary Compound B. Groups of eight AG129 nice were challenged with EV-71 at 10^6.5 CCID50/mouse via the i.p. route. Mice were treated b.i.d. for five days per os with doses of Compound B as shown, starting four hours post-infection. Placebo-treated mice received a vehicle control on the same schedule. Mice treated with IVIg, as a positive control, received a single administration of 100 mg/kg via the i.p. route four hours post-infection. […] (*P<0.05, **P<0.01).

[8] = Cell toxicity (CC50) in HPV assay
[9] = Cell toxicity (CC50) in BK virus assay
HCV = test: Anti-HCV assay (EC50); assay type: cell-based; conditions: Hepatitis C virus, read-out: HCV EC50
Procedure: Anti-HCV assay: Anti-HCV assays are performed as described by Cho et al. “Identification of a class of HCV inhibitors directed against the nonstructural protein NS4B.” Sci. Transl. Med. 2011; 2(15):15ra6.

HRV = test: Rhinovirus antiviral assay (EC50); assay type: cell-based; conditions: Human rhinovirus sp.
EV71 = EV71 antiviral assay (EC50); assay type: cell-based, Enterovirus 71; conditions: Enterovirus A, EV71
EV68 = EV68 antiviral assay (EC50); assay type: cell-based
[10] = Microsomal stability, human liver microsomes; assay type: in vitro ADME; conditions: for half-life: read-out: HLM/MLM (t ½ min): HLM
[11] = Microsomal stability, mouse liver microsomes; assay type: in vitro ADME
[12] = Caco-2 permeability assay; assay type: in vitro ADME; conditions: human, read-out: Caco2 Papp × 1e−6 cm/s
Procedure: Compounds of interest were tested in a variety of cell-based assays for antiviral activity.

[13] = test system: JC virus (Polyomaviridae); test: JC virus antiviral assay (EC50); assay type: cell-based; conditions: JC polyomavirus
[14] = Cell toxicity (CC50) in HRV assay; conditions: human, HRV CC50
[15] = Cell toxicity (CC50) in EV71 assay; conditions: EV71 CC50
cells (EV71 assay) = test: Cell toxicity (CC50) in EV71 assay
[16] = Cell toxicity (CC50) in EV68 assay; conditions: EV68 CC50
[17] = Cell toxicity (CC50) in JC virus assay
HeLa S3 cells = test: Cell toxicity (CC50) in HRV assay; conditions: human
cells (EV68 assay) = test: Cell toxicity (CC50) in EV68 assay
[18] = read-out: HLM/MLM (t ½ min): MLM
[19] = with ritonavir (concentration not stated), + Ritonavir, read-out: HLM/MLM (t ½ min) + Ritonavir: MLM

T1 sequence (P42356 whole entry): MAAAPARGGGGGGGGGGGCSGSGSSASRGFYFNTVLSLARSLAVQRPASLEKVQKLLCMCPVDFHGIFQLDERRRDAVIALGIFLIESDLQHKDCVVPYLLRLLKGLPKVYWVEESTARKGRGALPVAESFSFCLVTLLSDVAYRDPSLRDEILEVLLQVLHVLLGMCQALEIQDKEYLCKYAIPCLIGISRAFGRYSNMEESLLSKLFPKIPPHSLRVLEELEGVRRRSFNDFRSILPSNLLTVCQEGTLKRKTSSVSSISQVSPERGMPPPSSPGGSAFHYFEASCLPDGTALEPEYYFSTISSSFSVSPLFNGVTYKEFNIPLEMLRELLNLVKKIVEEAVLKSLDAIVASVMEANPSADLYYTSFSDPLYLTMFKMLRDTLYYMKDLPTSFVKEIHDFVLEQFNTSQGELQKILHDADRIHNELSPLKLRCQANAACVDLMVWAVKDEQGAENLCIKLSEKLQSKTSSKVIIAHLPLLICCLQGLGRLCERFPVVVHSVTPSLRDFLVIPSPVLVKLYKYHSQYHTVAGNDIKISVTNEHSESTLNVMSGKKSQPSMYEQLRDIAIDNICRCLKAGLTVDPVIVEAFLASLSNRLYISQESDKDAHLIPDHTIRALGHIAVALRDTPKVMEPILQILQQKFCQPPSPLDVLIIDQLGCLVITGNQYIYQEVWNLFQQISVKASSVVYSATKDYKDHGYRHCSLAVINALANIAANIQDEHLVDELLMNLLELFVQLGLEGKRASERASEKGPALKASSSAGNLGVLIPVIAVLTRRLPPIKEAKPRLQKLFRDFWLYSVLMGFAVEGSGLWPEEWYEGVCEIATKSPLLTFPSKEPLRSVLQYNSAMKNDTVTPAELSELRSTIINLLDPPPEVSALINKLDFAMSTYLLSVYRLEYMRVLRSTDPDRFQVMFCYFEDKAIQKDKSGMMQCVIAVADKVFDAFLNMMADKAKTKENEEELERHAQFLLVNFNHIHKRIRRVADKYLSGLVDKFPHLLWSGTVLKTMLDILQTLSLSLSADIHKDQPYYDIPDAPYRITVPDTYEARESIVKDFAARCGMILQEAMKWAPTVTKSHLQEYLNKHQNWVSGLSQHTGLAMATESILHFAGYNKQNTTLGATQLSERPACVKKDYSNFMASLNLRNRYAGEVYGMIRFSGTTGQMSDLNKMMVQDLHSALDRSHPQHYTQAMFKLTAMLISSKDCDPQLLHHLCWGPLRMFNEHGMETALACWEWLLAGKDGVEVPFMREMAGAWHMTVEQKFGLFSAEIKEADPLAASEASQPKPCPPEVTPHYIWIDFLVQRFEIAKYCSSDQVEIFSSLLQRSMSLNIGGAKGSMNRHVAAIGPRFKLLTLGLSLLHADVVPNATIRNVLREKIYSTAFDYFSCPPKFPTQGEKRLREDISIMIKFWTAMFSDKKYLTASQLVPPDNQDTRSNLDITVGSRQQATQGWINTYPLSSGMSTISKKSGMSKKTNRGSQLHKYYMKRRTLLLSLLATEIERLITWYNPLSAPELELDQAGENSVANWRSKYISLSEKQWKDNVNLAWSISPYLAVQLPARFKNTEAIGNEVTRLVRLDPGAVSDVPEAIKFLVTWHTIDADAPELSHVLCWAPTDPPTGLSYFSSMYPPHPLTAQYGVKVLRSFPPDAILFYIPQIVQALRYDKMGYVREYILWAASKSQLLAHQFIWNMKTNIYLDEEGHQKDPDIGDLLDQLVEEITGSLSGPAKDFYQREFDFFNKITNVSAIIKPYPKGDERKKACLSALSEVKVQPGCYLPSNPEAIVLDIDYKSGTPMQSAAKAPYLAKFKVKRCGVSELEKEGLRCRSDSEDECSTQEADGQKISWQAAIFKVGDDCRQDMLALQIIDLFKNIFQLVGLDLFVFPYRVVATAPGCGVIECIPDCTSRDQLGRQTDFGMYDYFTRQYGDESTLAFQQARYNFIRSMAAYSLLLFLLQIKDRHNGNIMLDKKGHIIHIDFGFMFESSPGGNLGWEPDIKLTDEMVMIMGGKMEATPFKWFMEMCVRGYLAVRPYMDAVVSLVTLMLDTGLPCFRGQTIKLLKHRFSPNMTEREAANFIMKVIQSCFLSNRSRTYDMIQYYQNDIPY

| SMILES | IC50 (PI4KIIIalpha) [µM] | IC50 (PI4KIIIbeta) [µM] | EC50 [1] [µM] | EC50 [2] [µM] | PI4P levels (lung cancer cell lines [3]) | cell proliferation in monolayer culture (lung cancer cell lines [4]) | migration and invasion in Boyden chambers (lung cancer cell lines [5]) | colony formation in soft agar and on plastic (lung cancer cell lines [6]) | CC50 [8] [µM] | CC50 [9] [µM] | EC50 (HCV) [µM] | EC50 (HRV) [µM] | EC50 (EV71) [µM] | EC50 (EV68) | HLM/MLM (t ½ min) + Ritonavir: HLM [10] [min] | half-life [10] [min] | half-life [11, 18] [min] | half-life [11, 19] [min] | EC50 [13] [µM] | CC50 [17] [µM] | further results |
| --- | --- | --- | --- | --- | --- | --- | --- | --- | --- | --- | --- | --- | --- | --- | --- | --- | --- | --- | --- | --- | --- |
| COc1ccc(-c2sc(NC(C)C3CCOCC3)nc2C)cc1S(=O)(=O)Nc1ccccc1Cl (stereo not drawn) [Compound B] | > 10 | < 0.1 | 0.019 | 2.1 | decreased PI4P levels in a dose-dependent fashion | reduced cell proliferation in monolayer culture | reduced | reduced | 131 | > 100 |  |  |  |  |  |  |  |  |  |  | metastases [7]: No metastases were detectable; sizes of the primary tumors vs vehicle alone [7]: smaller; survival (EV-71 virus): A dose response was observed in survival |
| COc1ccc(-c2sc(NC(C)(C)c3ccccc3)nc2C)cc1S(=O)(=O)NC1CCN(C(C)=O)CC1 [Compound S-42] | > 10 | < 0.1 |  |  |  |  |  |  |  |  | 0.0007 | 0.0009 | 0.0003 | 0.0019 µM and 0.0016 µM | 159 | 10 | 14 | 82 | 8.1 | > 150 | Papp [12]: 14 ×10⁻⁶ cm/s; CC50 [14]: 100 µM; CC50 [15]: 103 µM; CC50 (cells (EV71 assay)): 100 µM; CC50 [16]: 100 µM |
| COc1ccc(-c2sc(NC(C)(C)c3ccccn3)nc2C)cc1S(=O)(=O)Nc1c(C)cccc1F [Compound S-45] | > 10 | < 0.1 |  | 5.3 |  |  |  |  | 77 |  | 0.0004 | 0.0005 | 0.0003 | 0.002 µM and 0.0029 µM | 159 | 14 | 10 | 67 | 4.7 | > 150 | CC50 [14]: 66.2 µM; CC50 (HeLa S3 cells): 52 µM; CC50 [15]: 87.3 µM; CC50 (cells (EV71 assay)): 77 µM; CC50 [16]: 73.2 µM; CC50 (cells (EV68 assay)): 38 µM |
| Nc1ccn(C[C@@H](CO)OCP(=O)(O)O)c(=O)n1 [PC1, cidofovir, reference compound] |  |  | 0.31 |  |  |  |  |  |  | > 100 |  |  |  |  |  |  |  |  | 29.5 | > 150 |  |
| Nc1nc2c(ncn2CCOCP(=O)(O)O)c(=O)[nH]1 [PC2, 9-[2-(phosphono-methoxy)ethyl]guanine, reference compound] |  |  |  | 2.8 |  |  |  |  | > 150 |  |  |  |  |  |  |  |  |  |  |  |  |
| COc1ccc(-c2sc(NC(=O)C3CCCC3)nc2C)cc1S(=O)(=O)Nc1ccc(O)cc1 [PI4KIIIbeta-IN-9] |  |  |  |  | decreased PI4P levels in a dose-dependent fashion | reduced cell proliferation in monolayer culture | reduced | reduced |  |  |  |  |  |  |  |  |  |  |  |  |  |
